# Results as given in patent US20090176866A1, “Complexes having adjuvant activity” (priority 2004, published 2009).
# How the values were obtained:
# [1] = tested on: intracellular Leishmania donovani amastigotes; experiment: Inhibition of intracellular Leishmania donovani amastigote growth in human monocyte derived macrophages (infection index); format: cell-based; settings: 72 h at 32° C.
# Experimental: (§1) Leishmania donovani amastigotes were used to infect human monocyte derived macrophages that were maintained in RPMI 1640 (Invitrogen) supplemented with 10% human serum (heat inactivated at 56° C. for 1 hour) and 200 IU/ml penicillin and 200 μg/ml streptomycin. The cells were plated at 10^6 cells/ml into Lab-Tek Chamber Slides (Nunc) and incubated at 37° C./5% CO2 for 3 days. The media was then aspirated from the chamber slides and an equal volume of fresh media added back in which the amastigote concentration had been adjusted to give a parasite:cell infection ratio of 5:1. The cells were then incubated at 32° C. for 20 h to enable infection of the macrophages to become established. Media was then aspirated from the chamber slides and replaced with doubling dilutions of the test compound. The cells were then incubated at 32° C. for 72 h. After washing with PBS, the chambers were detached, the slides allowed to dry and then fixed in methanol. Each slide was then stained with Giemsa and examined microscopically. A total of 250 cells were counted to determine the number of infected and uninfected cells.
# (§2) The infection index was calculated as the average number of parasites/cell multiplied by the percentage of infected cells.
# [2] = tested on: intracellular Leishmania mexicana amastigotes; experiment: Inhibition of intracellular Leishmania mexicana amastigote growth in human monocyte derived macrophages (infection index); format: cell-based; settings: 72 h at 32° C.
# Experimental: as §1, with “mexicana” for “donovani”
# as §2
# [3] = tested on: Leishmania donovani promastigotes; experiment: Viability of Leishmania donovani promastigotes (MTT); format: cell-based; settings: 24 h + 24 h MTT at 26° C.
# Experimental: (§3) Leishmania donovania promastigotes were used for these experiments. They were maintained in Schneider's Growth Media 199 supplemented with 15% fetal calf serum (heat inactivated at 56° C. for 1 hour) and gentamicin (1 mg/100 ml). The parasite concentration was adjusted to 2×10^6 parasites/ml. Doubling dilutions of the test compound were prepared at twice the desired final concentration in growth media. An equal volume of the drug and the parasite suspension were then mixed in a 96 well plate and incubated for 24 h at 26° C. At this time, MTT (5 mg/ml) was added and the plate incubated for a further 24 h at 26° C. The plate was then centrifuged (2000 g, 5 min), the supernatant discarded and the pellet resuspended in 100 μl DMSO. Absorbance was measured at 570 nm using a spectrophotometer. The results were expressed as the percentage viability of the promastigotes with 100% viability being determined using the OD of the untreated, replicating promastigotes in the control wells.
# visceral leishmaniasis = settings: intravenous, daily or every other day, 15-20 infusions at 0.75-1 mg/kg/day; cited from earlier work
# human red blood cells = experiment: Red blood cell lysis; format: cell-based; settings: 24 h incubation; 3 donors
# Experimental: A 2% v/v solution of human red blood cells was prepared in RPMI 1640. […] A 1% solution of Triton X-100 was used as a positive reference for 100% cell lysis. Dextran and poly-L lysine were used as negative and positive controls respectively. An equal volume of the sample and red blood cells were aliquoted into a 96 well microbtre plate and incubated at 37° C. After 1 h and after 24 h, each sample was centrifuged (2,000 g, 10 min) and the supernatant added to a 96 well microtitre plate. The absorbance was measured at 490 nm using a spectrophotometer. The degree of lysis was expressed as a percentage of the 100% lysis caused by Triton X-100.
# Lyophilised amphotericin B-PMMA-Na was stored at 4° C. under argon for 4 months. It was also solubilised in 5% dextrose at a concentration of 1 mg/ml and stored at 4° C. for 7 months under argon.
# Freshly prepared, clinical grade amphotericin B was used as a reference for the comparison. Incubations were undertaken for 1 h and 6 h.
# [4] = tested on: Leishmania mexicana promastigotes; experiment: Viability of Leishmania mexicana promastigotes (MTT); format: cell-based; settings: 24 h + 24 h MTT at 26° C.
# Experimental: as §3, with “mexicana promastgotes” for “donovania promastigotes”, “Drosophila growth medium (Invitrogen)” for “Growth Media 199”
# [5] = tested on: Leishmania donovani amastigotes; experiment: Mouse model of visceral leishmaniasis (liver parasite burden); format: in vivo, BALB/c mice
# Experimental: Leishmania donovani strain (MHOM/ET/67/L82) amastigotes were collected from the spleens of heavily infected donor Syrian Hamsters-Mesocritetus auratus. An inoculum containing 7.5-10×10^7 amastigotes/mL was prepared. Female BALB/c mice (20 g) that were specified pathogen free were infected intravenously with 200 μL (equivalent to 1.5-2×10^7 amastigotes) on day 0. The end point of infection was evaluated by microscopic reading on day 14 to check for the level of infection in one mouse, and on day 21 post-infection of Giemsa stained liver impressions to determine the total parasite burden.
# The following compounds were administered intravenously according to the following regimens:—
# There were 5 animals in each group. […] All drug preparations were filtered using a […] syringe filter. The intravenous volume of injection was 200 μL per injection.
# Groups of mice were weighed before and after treatment as a measure of toxicity and the percentage weight change noted. On day 21 after infection (which was 3 days after the completion of treatment), the parasite burden was determined microscopically from methanol fixed liver impression slides stained with 10% Giemsa. The number of amastigotes/500 liver cells were counted microscopically and the results expressed as a percentage of the untreated control.
compound,measurement,setting,value
"C[C@@H]1[C@H](O)[C@@H](C)/C=C/C=C/C=C/C=C/C=C/C=C/C=C/[C@H](O[C@@H]2O[C@H](C)[C@@H](O)[C@H](N)[C@@H]2O)C[C@@H]2O[C@](O)(C[C@@H](O)C[C@@H](O)[C@H](O)CC[C@@H](O)C[C@@H](O)CC(=O)O[C@H]1C)C[C@H](O)[C@H]2C(=O)O [clinical grade amphotericin B, amphotericin B]",50% inhibition of intracellular amastigote growth,[1],0.54 µg/mL
same,90% inhibition of intracellular amastigote growth,[1],2.31 µg/mL
same,50% inhibition of intracellular amastigote growth,[2],0.14 µg/mL
same,90% inhibition of intracellular amastigote growth,[2],0.95 µg/mL
same,90% lethal dose (LD90),[3],1.91 µg/mL
same,Long-term cure rates,visceral leishmaniasis,97%
same,red cell lysis (toxicity),human red blood cells,100%
same,90% lethal dose (LD90),[4],1.49 µg/mL
same,killing activity of Leishmania donovani amastigotes compared to the controls,"[5]; 1 mg/kg i.v. days 14, 16 and 18, liver, day 21, P<0.0001",significant killing activity
same,anti-leishmanial activities compared with each other,"[5]; clinical grade amphotericin B, Ambisome, amphotericin B-PMAA-Na (2 mg/kg), P<0.05 as printed",not significantly different from each other
